Experimental data from US11707065B2, “Method for biofilm dispersal” (MC (US) 3 LLC, priority 2017, dated 2023).

Legend:
[1] = tested on: Desulfovibrio desulfuricans (DSM 12129) biofilm; experiment: Biofilm dispersal assay, crystal violet staining of remaining biofilm in 96-well plates; format: cell-based; conditions: D. desulfuricans, 2 h treatment, 24 h biofilm, negative control 0.88
Experimental: (§1) Cultures of Desulfovibrio vulgaris (ATCC 29579) and Desulfovibrio desulfuricans (DSM 12129) were prepared in Modified Baar's medium at 30 C under anaerobic conditions. The bacterial cultures were then used to prepare bacterial suspensions in fresh Modified Baar's medium to a cell density of 0.1 (Table 2 to 6) or 0.05 (Table 1) at 600 nm. The appropriate bacterial suspension was used to fill 96-well plates and the plates were incubated in an anaerobic glove box for 24 h (Table 2 to 6) or 48 h (Table 1) at 30° C. to develop biofilms. Stocks of D-mannose (2.85 M, Alfa Aesar, Cat #A10842), 2DG (1.22 M, Alfa Aesar, Cat #AAAL07338-06), αMM (1.22 M, Acros Organics, Cat #AC229251000), and αMG (1.22 M, Alfa Aesar, Cat #AAA12484-22) were prepared in sterile distilled water and filtered through a 0.22 μm filter. For biofilm dispersal assay, the planktonic cells were removed, and the plates were washed with 150 μL of 1× of phosphate buffered saline (pH 7.4); D-mannose, 2DG, αMM, and αMG were added, the volume was adjusted with 1×PBS, pH 7.4 to 150 μL, and the plates were incubated in the anaerobic glove box for 2 h (Table 1, 2, 4, 5, 6) or 14 h (Table 3) for biofilm dispersal studies. After the treatment, supernatants were discarded; the wells were washed three times with deionized water (DW) by dipping the plates into a 1 L solution of DW, and the plates were dried via a piece of paper towel by patting. 300 μL of 0.1% crystal violet was added to each well, the plates were incubated for 20 minutes at room temperature (25° C.), and the staining solution was discarded. The plates were washed three times with DW by dipping the plates into a 1 L solution of DW, then 300 μL of 95% ethanol was added to each well, and the plates were soaked for 5 min to dissolve the crystal violet. Total biofilm was measured spectrophotometrically at 540 nm using a Sunrise microplate reader (Tecan, Austria Gesellschaft, Salzburg, Austria).

[2] = tested on: Desulfovibrio vulgaris (ATCC 29579) biofilm; experiment: as above; format: cell-based; conditions: D. vulgaris
Experimental: as §1

[3] = 30 mM, 2 h treatment, 24 h biofilm (cell density 0.1), negative control per table
[4] = 100 mM, 2 h treatment, 24 h biofilm (cell density 0.1), negative control per table
[5] = 500 mM, 2 h treatment, 24 h biofilm (cell density 0.1), negative control per table

SMILES: O=CC[C@@H](O)[C@H](O)[C@H](O)CO [2DG, 2-deoxy-D-glucose]
- Remaining biofilm OD540 (average) ([1]; 30 mM): 0.59
- Remaining biofilm OD540 (average) ([1]; 100 mM): 0.49
- Remaining biofilm OD540 (average) ([1]; 500 mM): 0.41
- Remaining biofilm OD540 ([2]; 1 mM, 14 h treatment, 24 h biofilm, negative control 0.26): 0.24
- Remaining biofilm OD540 ([2]; 5 mM, 14 h treatment, 24 h biofilm, negative control 0.26): 0.21
- Remaining biofilm OD540 ([2]; 10 mM, 14 h treatment, 24 h biofilm, negative control 0.26): 0.16
- Remaining biofilm OD540 [2, 3]: 0.24
- Remaining biofilm OD540 [2, 4]: 0.17
- Remaining biofilm OD540 [2, 5]: 0.18

SMILES: CO[C@H]1O[C@H](CO)[C@@H](O)[C@H](O)[C@H]1O [αMG, methyl α-D-glucopyranoside]
- Remaining biofilm OD540 (average) ([1]; 30 mM): 0.75
- Remaining biofilm OD540 (average) ([1]; 100 mM): 0.62
- Remaining biofilm OD540 (average) ([1]; 500 mM): 0.55
- Remaining biofilm OD540 [2, 3]: 0.39
- Remaining biofilm OD540 [2, 4]: 0.33
- Remaining biofilm OD540 [2, 5]: 0.45

SMILES: CO[C@H]1O[C@H](CO)[C@@H](O)[C@H](O)[C@@H]1O [αMM, methyl α-D-mannopyranoside]
- Remaining biofilm OD540 (average) ([1]; 30 mM): 0.60
- Remaining biofilm OD540 (average) ([1]; 100 mM): 0.53
- Remaining biofilm OD540 (average) ([1]; 500 mM): 0.50
- Remaining biofilm OD540 [2, 3]: 0.42
- Remaining biofilm OD540 [2, 4]: 0.40
- Remaining biofilm OD540 [2, 5]: 0.23
